Experimental data as given in patent publication US9982017B2, “Synthetic apelin mimetics for the treatment of heart failure” (priority 2012, dated 2018).
Where a SMILES comes first, the peptide text is derived from it. Bridges are numbered along the chain shown (N, C = ends). [ ]: non-standard residue; d: D form. pGlu = O=C1CC[C@@H](C(=O)O)N1; Nle = CCCC[C@H](N)C(=O)O

Experiment: in vitro
Conditions: rat, not told, Surrogate activity-based Plasma stability t½

| half-life | SMILES |
| --- | --- |
| 11.7 h | CCCC[C@@H]1NC(=O)[C@@H]2CCCN2C(=O)CNC(=O)[C@H](CCCCN)NC(=O)[C@H](Cc2c[nH]cn2)NC(=O)[C@@H](NC(=O)[C@H](CC(C)C)NC(=O)[C@H](CCCNC(=N)N)NC(=O)[C@@H]2CCCN2C(=O)[C@H](CCCNC(=N)N)NC(=O)[C@@H]2CCC(=O)N2)CSSC[C@@H](C(N)=O)NC1=O [Example 63, pE-R-P-R-L-C-H-K-G-P-Nle-C-NH2] ([pGlu]RPRLCHKGP[Nle]C-NH2; disulfide 6-12) |
| 9.93 h | CCCC[C@@H]1NC(=O)[C@@H]2CCCN2C(=O)CNC(=O)[C@H](CCCCN)NC(=O)[C@H](Cc2cnc[nH]2)NC(=O)[C@@H](NC(=O)[C@H](CC(C)C)NC(=O)[C@H](CCCNC(=N)N)NC(=O)[C@@H]2CCCN2C(=O)[C@H](CCCNC(=N)N)NC(=O)[C@@H]2CCC(=O)N2)CSC[C@@H](C(=O)N[C@@H](Cc2ccccc2)C(=O)O)NC1=O [Example 65, pE-R-P-R-L-C-H-K-G-P-Nle-C-F-OH] |
| 9.93 h | CCCC[C@@H]1NC(=O)[C@@H]2CCCN2C(=O)CNC(=O)[C@H](CCCCN)NC(=O)[C@H](Cc2cnc[nH]2)NC(=O)[C@@H](NC(=O)[C@H](CC(C)C)NC(=O)[C@H](CCCNC(=N)N)NC(=O)[C@@H]2CCCN2C(=O)[C@H](CCCNC(=N)N)NC(=O)[C@@H]2CCC(=O)N2)CSC/C(=N/OCC(=O)NCCNC(=O)COCCOCCNC(=O)CCC(NC(=O)CCCCCCCCCCCCCCCCC(=O)O)C(=O)O)CSC[C@@H](C(=O)N[C@@H](Cc2ccccc2)C(=O)O)NC1=O (stereo partly drawn) [Example 66] |
